Results taken from paper PMC11778240, “Synthesis and preclinical evaluation of tigilanol tiglate analogs as latency-reversing agents for the eradication of HIV” (Science Advances, 2025).

Tests used:
[1] = system: HIV; conditions: HIV-infected, ART-treated humanized mice, cited from earlier work
[2] = system: J-Lat clone 10.6 cells; assay: J-Lat HIV latency reversal assay (GFP expression); type: cell-based, Human; conditions: J-Lat 10.6; for HIV latency reversal time course in words: over 48 hours
Source text: Having shown that our lead compounds bind cell-free PKC isoforms, enter cells, translocate PKC-GFP fusion proteins, and activate NF-κB transcription factors, we next set out to determine whether our analogs were capable of reversing HIV from latency. We performed in vitro assays using T lymphocyte J-Lat clone 10.6, which contains a latent near full-length replication-incompetent integrated HIV DNA genome ([72]). J-Lat 10.6 lacks two viral genes, env and nef, which encode for the envelope protein and an accessory protein, respectively, and thus cannot initiate a spreading HIV infection. The integrated HIV provirus also encodes a GFP reporter gene, allowing latency reversal to be measured by quantification of GFP expression (fig. S1). […] In this latency reversal assay, we quantified GFP expression 48 hours after compound addition and observed bryostatin 1 to be maximally effective at concentrations of 40 nM or higher with latency reversal in 12% of cells (Fig. 8). Given the efficacy of bryostatin 1 as an LRA ([73], [74]), EBC-46 and many of its analogs tested in this J-Lat assay induced latency reversal in >90% of cells. […] SUW427, an esterase-releasable prodrug of EBC-46, also performed similarly to EBC-46 with a maximum efficacy of latency reversal in >90% of cells at a dose of 250 nM. […] The gradual release of EBC-46 from its prodrug form provides an alternative mode of administration that avoids the bolus effect associated with rapid drug administration ([17]). […] This is consistent with its lack of activity in the NF-κB activation assay and its design as a negative control as it is structurally similar to EBC-46 but unable to bind to the C1 domain of PKC at the concentrations used in this assay as it lacks a complete pharmacophore.
HIV latency reversal in-vitro assay
Human T Lymphocyte J-Lat Full Length Cell Line 10.6 (cat #9849) was obtained through the NIH HIV Reagent Program, Division of AIDS, NIAID, NIH and was contributed to the NIH HIV Reagent Program by Dr. Eric Verdin (70). J-Lat 10.6 cells were plated at 5 × 10^5 cells in 180 μL of RF10 media consisting of RPMI media supplemented with 1% Penicillin/Streptomycin and 10% Fetal Bovine Serum (FBS) in 96 -well U -bottom plates. J -Lat 10.6 cells were then stimulated for 48 hr by adding 20 μL of newly designed and synthesized tigilanol tiglate analogs, PKC modulators (bryostatin 1) as our positive control or med ia only (mock) as our negative control. Our negative control was RF10 media as the tigilanol tiglate analogs were freshly diluted with RF10 prior to plating. The final volume was 200 μL per well. Experiments were performed in three independent biological replicates, each completed in technical duplicates (n = 6). After 48 hr stimulation, 96 - well U -bottom plates were centrifuged at 296 RCF for 7 minutes to pellet cells, which were resusp ended in 200 μL of freshly prepared 2% paraformaldehyde (PFA) in PBS. GF P expression was measured 24 -hours post -fixation using the FITC channel on a LSR Fortessa (BD Biosciences) flow cytometer. Data analysis was conducted with FlowJo software version 10.8.1.

[3] = system: NF-κB pathway; assay: NF-κB activation assay, A549 cells with SEAP reporter; type: cell-based, Human; conditions: 24 hours after dosing, A549 cells
Source text: As a high-throughput method of screening compounds for their ability to get into cells and activate immunological pathways related to HIV latency reversal ([46], [70]), we conducted an NF-κB reporter assay using A549 cells stably integrated with a secreted embryonic alkaline phosphatase reporter under the control of a promoter fused to five NF-κB binding sites (Fig. 7B) ([48], [70], [71]).
Human A549-Dual™ Cells supplied by InvivoGen (Cat. code a549d-nfis) and CHO-K1 cells were passaged when about 90% confluency was reached (approximately every three days). With each passage, media was aspirated from the cell layer, which was then washed with PBS. Following aspiration of the PBS, cells were detached from the culture flask with 0.25% GibcoTM Trypsin-EDTA and transferred to a 50 mL conical, which was volumed up with complete pre-warmed DMEM (4.5 g/L glucose, 10% FBS, and 1% Pen-Strep-Glutamine (100 X, 50 mg/mL)) or Ham's F-12K (Kaighn's) Medium supplemented with 10% FBS and 1% Pen-Strep (100 X, 50 mg/mL).
This conical was spun down at 1800 rpm for 3 minutes, the supernatant was removed, and cells were resuspended in their respective fresh, pre-warmed media. To count cells, 10 μL of resuspended cells were added to a sterile microcentrifuge tube and mixed with 10 μL of trypan blue after which 10 μL of the mixture was pipetted into a Countess chamber slide. A Countess™ 3 Automated Cell Counter was subsequently utilized to determine cell viability and concentration.
1 x 10^6 cells were seeded with each passage into a T75 culture flask, and cells were incubated at […]
Human A549 lung carcinoma cells (InvivoGen Cat. code a549d-nfis), stably integrated with a secreted embryonic alkaline phosphatase (SEAP) reporter, allow for the activity of the NF-κB pathway to be monitored. The SEAP reporter is under control of the interferon β (IFN-β) minimal promoter, which is fused to five NF-κB binding sites.
5 × 10^4 A549 cells were plated on Corning® 96 Well TC-Treated Microplates (CLS3595) in 180 μl of pre-warmed DMEM (4.5 g/L glucose, 10% heat-inactivated FBS (30 min at 56 ℃), and 1% Pen-Strep-Glutamine (100 X, 50 mg/mL)). Note that if cells were grown in media containing FBS that is not heat-inactivated, media will contain alkaline phosphatase. In this case, all supernatant must thoroughly be aspirated from the cell pellet obtained after centrifugation before resuspending cells in media containing heat inactivated FBS for plating. Following incubation at 37 °C in 5% CO2 for approximately 24 hours to allow for cell adherence onto the 96 well plate, 1.8 μL of each compound dissolved in DMSO was added in quadruplicate to their respective wells to achieve a final compound concentration of 1500 nM, 500 nM, or 50 nM. 1.8 μL of DMSO was added to wells as negative controls while wells treated with EBC-46 served as positive controls. 24 hours following compound addition, 180 μL of QUANTI-BlueTM Solution (InvivoGen Cat. code rep-qbs)- medium containing QB buffer and QB Reagent for detection and quantification of alkaline phosphatase- were added into wells on a new clear flat-bottom 96-well plate. 20 μL of supernatant of either SEAP-expressing cells incubated with compound or SEAP-expressing cells incubated with DMSO only were added to the wells in the new 96-well plate containing QUANTI-BlueTM Solution. Supernatant and QUANTI-BlueTM Solution were incubated at 37 °C in 5% CO2 for approximately an hour and a half. Following incubation, optical density (OD) at 630 nm was measured for each well using a BioTek Synergy H1 microplate reader under normal read speed and with a delay of 100 msec.

[4] = system: latent HIV; conditions: cited from earlier work

For `C=C1C[C@H]2C[C@]3(O)O[C@H](C[C@@H](O)CC(=O)O[C@@H](CO)C[C@@H]4C/C(=C\C(=O)OC)[C@H](OC(=O)CCCCCCC)[C@@](O)(O4)C(C)(C)/C=C/[C@@H](C1)O2)C[C@H](OC(C)=O)C3(C)C` [SUW133], the “animals not rebounding in vivo after ART discontinuation” value ([1]; with natural killer cells as kill arm) is given as 40% and the “effect on HIV rebound in words” value ([1]; administered alone) is given as “capable of delaying rebound when administered alone”.
For `CC=C(C)C(=O)OC1C(C)C2(O)C(C3OC3(COC(=O)OCc3ccc(OC(=O)OC)cc3)C(O)C3(O)C(=O)C(C)=CC32)C2C(C)(C)C12OC(=O)C(C)CC` (centres unmarked) [SUW427], the “HIV latency reversal time course in words” value ([2]; 100 nM) was “clear delayed HIV latency reversal”, the “maximal latency reversal, % of cells” value ([2]; 250 nM, 48 hours) was > 90 % of cells and the “HIV latency reversal time course in words” value ([2]; 250 nM) was “almost converged with its parent compound at all time points and reached maximal latency reversal”. For the same molecule, the “NF-κB activation (optical density, 630 nm)” value (“NF-κB activation” below) ([3]; 50 nM) was 0.33 optical density, 630 nm and the “NF-κB activation” value ([3]; 500 nM) was 0.64 optical density, 630 nm.
For `CCC/C=C/C=C/C(=O)O[C@H]1/C(=C/C(=O)OC)C[C@H]2C[C@H]([C@@H](C)O)OC(=O)C[C@H](O)C[C@@H]3C[C@H](OC(C)=O)C(C)(C)[C@](O)(C[C@@H]4C/C(=C/C(=O)OC)C[C@H](/C=C/C(C)(C)[C@]1(O)O2)O4)O3` [bryostatin 1, reference compound], the “latency reversal, % of cells” value ([2]; maximally effective at 40 nM or higher, 48 hours) was 12 % of cells, the “NF-κB activation” value ([3]; 50 nM) was 0.47 optical density, 630 nm and the “NF-κB activation” value ([3]; 500 nM) was 0.41 optical density, 630 nm.
In the case of prostratin-C13-naphthyl acetate, the “potency as an LRA relative to prostratin” value [4] is listed as > 130 fold.
